Values quoted from earlier work as cited in US7087611B2, “Preparation of an anhydrate form of 5-[2-[4-(1,2-benzisothiazol-3-yl)-1-piperazinyl]ethyl]-6-chloro-1,3-dihydro-2H-indol-2-one hydrochloride (ziprasidone hydrochloride)” (Apotex Pharmachem Inc., priority 2004, dated 2006).
Structures can show the parent of a compound that is named as a salt.

Tests used:
[1] = crystalline monohydrate form; as stated in U.S. Pat. No. 5,312,925
[2] = crystalline monohydrate form; background statement

O=C1Cc2cc(CCN3CCN(c4nsc5ccccc45)CC3)c(Cl)cc2N1 [ziprasidone hydrochloride monohydrate]
hygroscopic stability [1]: substantially hygroscopically stable | aqueous solubility [2]: very low
